Consider nine molecules from ChEMBL document CHEMBL5465560, “Selectivity Literature for EUbOPEN Chemogenomic Library” (2024).

For test [1], the target named is T1, Dual specificity mitogen-activated protein kinase kinase 4 (Homo sapiens) (UniProt P45985).
T1 sequence (whole entry): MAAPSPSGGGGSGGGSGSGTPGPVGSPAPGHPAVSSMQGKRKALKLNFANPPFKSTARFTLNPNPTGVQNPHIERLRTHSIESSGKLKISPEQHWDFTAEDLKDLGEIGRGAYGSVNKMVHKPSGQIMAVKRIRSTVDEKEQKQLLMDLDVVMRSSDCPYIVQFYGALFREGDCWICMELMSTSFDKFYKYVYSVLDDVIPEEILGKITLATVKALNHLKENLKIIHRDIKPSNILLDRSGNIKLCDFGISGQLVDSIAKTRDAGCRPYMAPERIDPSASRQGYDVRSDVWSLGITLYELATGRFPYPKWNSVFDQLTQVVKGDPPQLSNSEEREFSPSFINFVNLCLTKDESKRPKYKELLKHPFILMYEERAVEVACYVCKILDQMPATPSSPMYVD
The note with it: at 10 µM.

In test [2] the target is T2, Serine/threonine-protein kinase TNNI3K (Homo sapiens) (UniProt Q59H18).
T2 sequence (whole entry): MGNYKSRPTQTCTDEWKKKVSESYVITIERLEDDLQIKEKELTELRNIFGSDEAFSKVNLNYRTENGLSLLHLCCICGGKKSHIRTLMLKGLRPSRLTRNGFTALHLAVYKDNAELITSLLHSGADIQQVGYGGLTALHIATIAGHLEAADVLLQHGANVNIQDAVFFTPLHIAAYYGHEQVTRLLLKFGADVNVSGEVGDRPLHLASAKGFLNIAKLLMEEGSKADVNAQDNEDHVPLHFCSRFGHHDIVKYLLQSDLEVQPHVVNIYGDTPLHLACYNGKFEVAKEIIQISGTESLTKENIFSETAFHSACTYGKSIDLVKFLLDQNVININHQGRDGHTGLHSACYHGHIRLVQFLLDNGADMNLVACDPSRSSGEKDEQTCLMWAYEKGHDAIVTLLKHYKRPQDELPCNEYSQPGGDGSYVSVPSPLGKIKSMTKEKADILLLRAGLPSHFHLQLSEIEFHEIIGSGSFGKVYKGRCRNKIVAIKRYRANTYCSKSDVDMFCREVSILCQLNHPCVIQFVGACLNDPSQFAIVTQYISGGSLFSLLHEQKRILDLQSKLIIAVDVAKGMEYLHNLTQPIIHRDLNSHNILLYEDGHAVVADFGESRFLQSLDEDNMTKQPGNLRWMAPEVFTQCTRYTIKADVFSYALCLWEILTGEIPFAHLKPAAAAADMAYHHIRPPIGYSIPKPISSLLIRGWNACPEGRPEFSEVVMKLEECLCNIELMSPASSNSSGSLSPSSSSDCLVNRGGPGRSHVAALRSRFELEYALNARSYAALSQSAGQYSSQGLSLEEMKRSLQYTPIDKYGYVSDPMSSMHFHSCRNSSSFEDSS
In words: Selectivity interaction (KinomeScan (DiscoverX)) EUB0000045b TNNI3K.

Test [3] concerns the target Dual specificity mitogen-activated protein kinase kinase 1 (Homo sapiens, UniProt Q02750). The experiment in a line: Selectivity interaction (KinomeScan (DiscoverX)) EUB0001049a MAP2K1. The note with it: at 1 µM.
The target in test [4] is Mitogen-activated protein kinase kinase kinase kinase 1 (Homo sapiens) (UniProt Q92918). The experiment in a line: Selectivity interaction (KinomeScan (DiscoverX)) EUB0001049a MAP4K1. The note with it: at 1 µM.
Mitogen-activated protein kinase kinase kinase kinase 1 (Homo sapiens), sequence (Q92918 whole entry, looked up): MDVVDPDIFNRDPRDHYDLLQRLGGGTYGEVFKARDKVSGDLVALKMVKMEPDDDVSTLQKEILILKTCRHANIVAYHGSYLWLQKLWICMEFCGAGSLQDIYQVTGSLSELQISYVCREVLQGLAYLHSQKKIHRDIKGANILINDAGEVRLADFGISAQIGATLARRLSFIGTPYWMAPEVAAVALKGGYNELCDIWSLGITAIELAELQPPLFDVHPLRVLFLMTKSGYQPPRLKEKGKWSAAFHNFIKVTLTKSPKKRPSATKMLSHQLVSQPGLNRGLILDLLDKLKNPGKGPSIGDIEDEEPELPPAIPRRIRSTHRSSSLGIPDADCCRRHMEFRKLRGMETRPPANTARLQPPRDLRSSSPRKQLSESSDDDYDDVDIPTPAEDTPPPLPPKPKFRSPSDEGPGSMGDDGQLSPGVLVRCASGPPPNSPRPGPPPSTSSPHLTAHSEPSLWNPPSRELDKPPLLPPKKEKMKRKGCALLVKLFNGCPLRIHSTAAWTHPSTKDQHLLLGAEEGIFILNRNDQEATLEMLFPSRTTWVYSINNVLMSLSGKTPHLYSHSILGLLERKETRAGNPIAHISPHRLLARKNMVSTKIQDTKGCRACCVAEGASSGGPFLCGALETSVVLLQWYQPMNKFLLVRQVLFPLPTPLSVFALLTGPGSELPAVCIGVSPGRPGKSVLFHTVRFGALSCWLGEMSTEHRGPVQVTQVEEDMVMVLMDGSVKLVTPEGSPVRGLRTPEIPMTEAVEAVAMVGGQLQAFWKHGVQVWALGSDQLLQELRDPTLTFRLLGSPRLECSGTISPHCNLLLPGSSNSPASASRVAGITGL
The target of test [5] is T3, Testis-specific serine/threonine-protein kinase 2 (Homo sapiens) (UniProt Q96PF2).
T3 sequence (whole entry): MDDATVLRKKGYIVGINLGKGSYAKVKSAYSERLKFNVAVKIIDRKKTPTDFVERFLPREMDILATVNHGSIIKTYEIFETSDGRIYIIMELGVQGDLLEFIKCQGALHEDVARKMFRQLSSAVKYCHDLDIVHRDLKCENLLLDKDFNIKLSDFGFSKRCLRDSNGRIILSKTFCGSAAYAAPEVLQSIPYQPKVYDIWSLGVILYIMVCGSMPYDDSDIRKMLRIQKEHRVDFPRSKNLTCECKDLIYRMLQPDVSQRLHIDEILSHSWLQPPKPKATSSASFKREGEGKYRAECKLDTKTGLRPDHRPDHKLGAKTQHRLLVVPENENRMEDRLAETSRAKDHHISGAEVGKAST
The experiment in a line: Selectivity interaction (Upstate Kinase Profiler service (Millipore)) EUB0000056c TSSK2. The note with it: at 1 µM.

Test [6] addresses 5'-AMP-activated protein kinase catalytic subunit alpha-2 (Homo sapiens) (UniProt P54646). The experiment in a line: Selectivity interaction (KinomeScan (DiscoverX)) EUB0000655a PRKAA2. The note with it: at 10 µM.
Test [7] has as its target T4, RNA 5'-monophosphate methyltransferase (Homo sapiens) (UniProt Q7Z5W3).
T4 sequence (whole entry): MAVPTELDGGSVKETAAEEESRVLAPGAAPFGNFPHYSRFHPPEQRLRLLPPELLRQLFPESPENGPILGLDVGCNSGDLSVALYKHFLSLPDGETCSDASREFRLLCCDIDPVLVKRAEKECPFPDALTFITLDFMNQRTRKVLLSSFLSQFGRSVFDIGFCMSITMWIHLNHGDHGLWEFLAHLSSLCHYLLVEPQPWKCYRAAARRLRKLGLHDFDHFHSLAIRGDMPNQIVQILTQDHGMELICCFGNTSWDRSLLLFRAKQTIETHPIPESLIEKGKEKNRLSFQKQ
In words: Selectivity interaction (Transferase panel (protein, RNA, and DNA methyltransferases. and EP300 (acetyltransferase))) EUB0000270b BCDIN3D.

Test [8] addresses Bone morphogenetic protein receptor type-1A (Homo sapiens, UniProt P36894). The experiment in a line: Selectivity interaction (KinomeScan (DiscoverX)) EUB0000618a BMPR1A. Particulars: at 10 µM.
For test [9], the target named is T5, Histone-lysine N-methyltransferase SMYD3 (Homo sapiens) (UniProt Q9H7B4).
T5 sequence (whole entry): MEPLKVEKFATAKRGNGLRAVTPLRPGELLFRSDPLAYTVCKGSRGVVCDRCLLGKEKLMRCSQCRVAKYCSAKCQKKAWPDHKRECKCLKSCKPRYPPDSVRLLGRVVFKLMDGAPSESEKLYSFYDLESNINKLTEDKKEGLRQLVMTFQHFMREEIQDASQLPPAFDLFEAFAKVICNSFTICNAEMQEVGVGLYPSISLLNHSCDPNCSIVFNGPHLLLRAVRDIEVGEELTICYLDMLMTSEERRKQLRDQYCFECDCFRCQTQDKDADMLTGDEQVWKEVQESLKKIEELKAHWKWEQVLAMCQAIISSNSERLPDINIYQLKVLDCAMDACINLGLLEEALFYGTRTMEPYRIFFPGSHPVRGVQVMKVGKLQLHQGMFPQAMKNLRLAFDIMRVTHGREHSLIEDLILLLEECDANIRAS
The experiment in a line: Selectivity interaction (Methyltransferase screen (radiometric assays, panel of 8 PRMTs, 21 protein lysine methyltransferases, 3 DNA methyltransferases, and one RNA methyltransferase)) EUB0000271b SMYD3.

The target in test [10] is Dual specificity tyrosine-phosphorylation-regulated kinase 1B (Homo sapiens, UniProt Q9Y463). In words: Selectivity interaction (KinomeScan (DiscoverX)) EUB0001079a DYRK1B. Particulars: at 1 µM.
Dual specificity tyrosine-phosphorylation-regulated kinase 1B, sequence (Q9Y463 whole entry, looked up): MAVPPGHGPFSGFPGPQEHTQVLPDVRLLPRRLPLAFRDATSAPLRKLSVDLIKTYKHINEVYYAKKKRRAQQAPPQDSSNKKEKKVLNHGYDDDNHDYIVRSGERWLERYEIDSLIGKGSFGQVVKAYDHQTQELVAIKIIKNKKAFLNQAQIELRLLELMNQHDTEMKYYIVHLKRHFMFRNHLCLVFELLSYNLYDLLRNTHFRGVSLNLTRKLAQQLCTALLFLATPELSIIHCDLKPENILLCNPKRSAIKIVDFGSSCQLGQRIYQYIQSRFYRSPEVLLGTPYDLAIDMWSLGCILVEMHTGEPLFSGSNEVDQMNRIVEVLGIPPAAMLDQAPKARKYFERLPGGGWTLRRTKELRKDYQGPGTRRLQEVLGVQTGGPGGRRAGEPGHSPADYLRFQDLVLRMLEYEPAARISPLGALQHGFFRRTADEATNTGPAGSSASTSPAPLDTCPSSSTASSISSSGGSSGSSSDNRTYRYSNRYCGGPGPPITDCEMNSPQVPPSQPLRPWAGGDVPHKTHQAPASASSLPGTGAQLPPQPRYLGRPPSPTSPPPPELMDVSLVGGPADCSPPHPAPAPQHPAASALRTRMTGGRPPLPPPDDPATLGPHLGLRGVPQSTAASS

Some results are limits rather than exact numbers.

Dual specificity mitogen-activated protein kinase kinase 1, sequence (Q02750 whole entry): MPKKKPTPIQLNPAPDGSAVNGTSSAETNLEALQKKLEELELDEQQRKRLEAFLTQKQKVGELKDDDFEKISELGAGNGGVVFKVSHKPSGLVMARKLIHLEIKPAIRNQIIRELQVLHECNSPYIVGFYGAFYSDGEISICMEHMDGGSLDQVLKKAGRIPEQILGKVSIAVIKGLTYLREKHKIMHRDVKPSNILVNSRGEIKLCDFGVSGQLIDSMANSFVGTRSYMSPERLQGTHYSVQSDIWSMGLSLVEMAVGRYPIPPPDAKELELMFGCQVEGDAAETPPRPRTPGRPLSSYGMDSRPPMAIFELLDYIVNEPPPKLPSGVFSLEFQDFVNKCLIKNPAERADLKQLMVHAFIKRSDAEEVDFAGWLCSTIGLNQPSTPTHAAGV
5'-AMP-activated protein kinase catalytic subunit alpha-2 (Homo sapiens), sequence (P54646 whole entry, looked up): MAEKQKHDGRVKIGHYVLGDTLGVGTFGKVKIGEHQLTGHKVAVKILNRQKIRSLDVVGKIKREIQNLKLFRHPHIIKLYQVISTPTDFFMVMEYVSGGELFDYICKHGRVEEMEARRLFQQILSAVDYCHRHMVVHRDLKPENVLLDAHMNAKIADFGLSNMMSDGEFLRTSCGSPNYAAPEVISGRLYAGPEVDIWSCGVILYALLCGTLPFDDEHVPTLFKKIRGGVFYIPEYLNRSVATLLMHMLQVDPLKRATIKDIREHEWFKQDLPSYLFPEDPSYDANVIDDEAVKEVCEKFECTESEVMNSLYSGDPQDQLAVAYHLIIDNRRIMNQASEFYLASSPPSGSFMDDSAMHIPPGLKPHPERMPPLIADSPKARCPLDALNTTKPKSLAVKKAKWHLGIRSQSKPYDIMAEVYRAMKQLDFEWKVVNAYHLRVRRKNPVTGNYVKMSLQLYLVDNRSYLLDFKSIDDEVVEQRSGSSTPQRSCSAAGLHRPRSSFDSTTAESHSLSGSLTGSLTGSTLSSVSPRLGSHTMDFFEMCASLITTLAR
Bone morphogenetic protein receptor type-1A, sequence (P36894 whole entry): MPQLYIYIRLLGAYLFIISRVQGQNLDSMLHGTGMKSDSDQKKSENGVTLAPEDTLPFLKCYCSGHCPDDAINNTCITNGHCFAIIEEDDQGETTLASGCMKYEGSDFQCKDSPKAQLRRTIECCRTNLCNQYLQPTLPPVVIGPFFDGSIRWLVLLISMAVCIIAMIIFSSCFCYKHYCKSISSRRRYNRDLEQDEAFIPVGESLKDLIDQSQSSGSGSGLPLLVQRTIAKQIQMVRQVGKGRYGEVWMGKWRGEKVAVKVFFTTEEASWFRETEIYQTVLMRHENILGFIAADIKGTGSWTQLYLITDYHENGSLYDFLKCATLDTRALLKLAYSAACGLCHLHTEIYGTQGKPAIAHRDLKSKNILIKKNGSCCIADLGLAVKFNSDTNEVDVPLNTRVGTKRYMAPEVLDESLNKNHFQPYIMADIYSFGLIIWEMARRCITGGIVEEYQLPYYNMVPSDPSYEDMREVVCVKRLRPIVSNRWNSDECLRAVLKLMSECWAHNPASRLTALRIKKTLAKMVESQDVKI

In turn, `Cc1cc([C@@H](C)Nc2ccccc2C(=O)O)c2nc(N3CCOCC3)cc(=O)n2c1` [AZD-6482] yielded a % of control in [1] of 100%. On to `C=CC(=O)Nc1cc(-n2c(=O)ccc3cnc4ccc(-c5ccc(NS(C)(=O)=O)cc5)cc4c32)ccc1C`, for which the % of control amounted to 100% in test [2] (at 1 µM) and 77% in test [2] (at 10 µM). `COc1cc(Nc2nc(C)cc(-c3cnn4nc(OC)ccc34)n2)cc(C(F)(F)F)c1`: the % of control is 80% in test [3] and 86% in test [4]. Turning to `Cc1ccc(-c2ccc3c(ccc4sc5c(c43)NC[C@@H](C)NC5=O)n2)cn1`, the % of inhibition in test [5] was found to be 4%. On to `CN(C)CCOc1ccc(-c2nc(-c3ccncc3)c(-c3ccc4c(c3)CC/C4=N\O)[nH]2)cc1`, for which the % of control in test [6] amounted to 94%. As for `Cc1cc(CN)cc(C)c1-c1ncn(C)c1-c1cncn1C`, the % activity was greater than 90% in [7] (at 1 µM) and greater than 80% in test [7] (at 10 µM). For `O[C@H]1CC[C@H](Nc2ncc3nc(Nc4c(F)cc(F)cc4F)n([C@H]4CCOC4)c3n2)CC1`, the % of control in test [8] was 100%. As for `Cc1cc(C)cc([C@@H]2c3cc(C)ccc3NC(=O)CN2C(=O)c2ccc(Br)s2)c1`, the figures for the % of activity in test [9] (at 1 µM) and in test [9] (at 10 µM) were 100% and 98.3%, respectively.

For `Nc1cnc(N2CCc3cc(S(=O)(=O)Nc4c(F)cc(Cl)cc4F)cc(N4CCCC4=O)c32)nc1` [TP-020n], the % of control in test [10] worked out at 100%.
